# Laboratory results: patent US20240254085A1, “CHELATORS FOR RADIOMETALS AND METHODS OF MAKING AND USING SAME” (The University of British Columbia, priority 2021, published 2024)
# How the values were obtained:
# [1] = cited from earlier work
# [2] = literature value (ref 11); cited from earlier work
# [3] = Complex formation equilibria (stability constants) with Sc^3+; assay type: physicochemical
# Protocol: (§1) To evaluate the affinity of H4noneunpaX towards metal ions of medicinal importance—e.g. Sc^3+, In^3+, Lu^3+, Dy^3+, Gd^3+, Sm^3+, La^3+— the complex formation equilibria were studied using both combined potentiometric-spectrophotometric titrations, and in all cases, acidic in-batch UV-vis spectrophotometric titrations below pH 2. […]
# (§2) All potentiometric titrations were carried out with a Metrohm Titrando 809 and a Metrohm Dosino 800 with a Ross combined electrode. Direct titrations were recorded using a Varian Cary 60 UV-vis spectrophotometer (200-350 nm spectral range) equipped with an optic dip probe (0.2 cm path length), while acidic in-batch experiments were measured with a standardised glass cuvette (1 cm path length). A temperature-controlled (298 K) 20 mL glass cell with an inlet-outlet adapter for nitrogen gas purging (purified via a 10% NaOH solution to exclude CO2 prior to and during each titration) was used as a titration cell. The electrode was calibrated daily in hydrogen ion concentration by direct titration of HCl with freshly prepared NaOH solution, and the results were analysed with the Gran procedure^55 to determine the standard potential (E°) and the ionic product of water (pKw), at 298 K, with 0.16 M NaCl as a supporting electrolyte. […]
# (§3) The complex formation equilibria of H4noneunpaX with Sc^3+, In^3+, Lu^3+, Dy^3+, Gd^3+, Sm^3+, and La^3+ were evaluated using both combined potentiometric-spectrophotometric titrations, and acidic in-batch UV-vis spectrophotometric titrations below pH 2. […] Measurements were recorded at T=298 K, I=1.0 cm, the Hammett acidity function (H0) was used determination of the pH in highly acidic solutions rather than electrode potentials. Metal solutions were prepared from atomic absorption spectroscopy (AAS) standards, which were previously evaluated using Gran's method of titrating equimolar solutions of a given metal ion and Na2H2EDTA against NaOH to determine the acid concentration. […]
# [4] = Complex formation equilibria (stability constants) with Dy^3+; assay type: physicochemical
# Protocol: as §1, §2, §3
# [5] = Complex formation equilibria (stability constants) with Sm^3+; assay type: physicochemical
# Protocol: as §1, §2, §3
# [6] = Complex formation equilibria (stability constants) with Lu^3+; assay type: physicochemical
# Protocol: as §1, §2, §3
# [7] = Complex formation equilibria (stability constants) with La^3+; assay type: physicochemical
# Protocol: as §1, §2, §3
# [8] = Protonation constants by combined potentiometric-spectrophotometric and acidic in-batch UV-vis titrations; assay type: physicochemical; details: 25° C.
# Text: Prior to investigation of the thermodynamic stability of different metal complexes, the protonation constants of the chelating ligand must be determined independently, due to the competition between a given metal ion with a proton for the same coordinating group in the metal complex reaction. Combined potentiometric and UV-vis spectrophotometric titrations were used to evaluate the protonation constants of H4noneunpaX between pH˜2-11.5, while acidic in-batch UV-vis spectrophotometric titrations were used to determine the protonation constants for the most acidic protons, which were below the threshold of the pH electrode (pH<2). All eight protonation constants for H4noneunpaX were determined through refinement of the experimental data using HyperSpec^24 and Hyperquad^25, Table 3.
# (§4) All potentiometric titrations were carried out with a Metrohm Titrando 809 and a Metrohm Dosino 800 with a Ross combined electrode. Direct titrations were recorded using a Varian Cary 60 UV-vis spectrophotometer (200-350 nm spectral range) equipped with an optic dip probe (0.2 cm path length), while acidic in-batch experiments were measured with a standardised glass cuvette (1 cm path length). A temperature-controlled (298 K) 20 mL glass cell with an inlet-outlet adapter for nitrogen gas purging (purified via a 10% NaOH solution to exclude CO2 prior to and during each titration) was used as a titration cell. The electrode was calibrated daily in hydrogen ion concentration by direct titration of HCl with freshly prepared NaOH solution, and the results were analysed with the Gran procedure^55 to determine the standard potential (E°) and the ionic product of water (pKw), at 298 K, with 0.16 M NaCl as a supporting electrolyte. Solutions under study were titrated with carbonate-free NaOH solution (˜0.16 M) which was standardized against freshly recrystallized potassium hydrogen phthalate.
# The protonation equilibria of H4noneunpaX were evaluated through combined potentiometric-spectrophotometric titrations of solutions containing the ligand ([L]=9.57×10^−4 M) in 0.16 M NaCl (T=298 K, I=0.2 cm). Electromotive force (EMF) values and UV-vis spectra were recorded after each addition of NaOH, and the apparatuses synchronized to have consistent time-intervals (30 s) between each addition/equilibration and data acquisition. Further acidic in-batch UV-vis spectrophotometry studies were performed to obtain the protonation constants for the most acidic ionisable protons of H4noneunpaX, which were below the threshold of the pH electrode (pH<2). Separate solutions of the ligand were prepared at constant molarity ([L]=1×10^−4 M) with differing amounts of HCl (0.1 M and 3.0 M), while maintaining a constant ionic strength (0.16 M NaCl) wherever possible. In each case, the solution stoichiometry was used to calculate the equilibrium concentration of H^+ ions, following the Hammett acidity function (H0) for determination of acidity in high concentration acid solutions. All eight protonation constants for H4noneunpaX were determined through refinement of the experimental data using HypSpec2014^24 and Hyperquad2013^25 software.
# (§5) All the potentiometric measurements were processed using the Hyperquad2013^25 software, while spectroscopic measurements were analysed using HypSpec2014.^24 Proton dissociation constants corresponding to hydrolysis of the Sc^3+, In^3+, Lu^3+, Dy^3+ Gd^3+, Sm^3+, and La^3+ aqueous ions used in the calculations were taken from Baes and Mesmer. Speciation diagrams were generated with the calculated protonation constants and stability constants using Hyss software.^56
# (§6) Each species generated in the investigated systems can be defined in accordance with the general equilibrium equation pM+qH+rL=MpHqLr (charges omitted). Wherein, a complex containing a metal ion, M, proton, H and ligand, L, has the general formula MpHqLr. […]
# [9] = Human serum stability challenge; assay type: in vitro ADME; details: complexes with [^111In]In^3+, [^155Tb]Tb^3+, [^177Lu]Lu^3+, [^225Ac]Ac^3+; 37° C., 5-7 days
# Protocol: All experiments were performed at 37° C. and monitored via radio-iTLC (n=3).
# Human serum stability studies were carried out by addition of each radiolabelled complex or bioconjugate (100 μL) to vials containing human serum albumin (100 μL) and incubating the resulting solutions at 37° C. over 5-7 days. The radiochemical purity (RCP) was determined by iTLC using SA-paper plates and EDTA (50 mM, pH 5.5 or 7.0) as eluent, whereby transchelated radioactivity migrates with the solvent front (Rf=1.0) while intact metal complexes remain at the baseline (Rf=0). All studies were performed in triplicate, and the average % RCP used for assessment of each compound.
# [10] = Complex formation equilibria (stability constants) with Gd^3+; assay type: physicochemical
# Protocol: as §1, §2, §3
# [11] = Complex formation equilibria (stability constants) with In^3+; assay type: physicochemical
# Protocol: as §1, §4
# The complex formation equilibria of H4noneunpaX with Sc^3+, In^3+, Lu^3+, Dy^3+, Gd^3+, Sm^3+, and La^3+ were evaluated using both combined potentiometric-spectrophotometric titrations, and acidic in-batch UV-vis spectrophotometric titrations below pH 2. For combined potentiometric-spectrophotometric titrations (spectral range: 200-350 nm), solutions containing a 1:1 molar ratio of metal-to-ligand ([M^3+]≈[H4noneunpaX]=8.40×10^−4 M) were titrated against NaOH solution at T=298 K, I=0.2 cm. Acidic in-batch UV-vis spectrophotometric measurements (spectral range: 200-350 nm) were carried out using sets of solutions containing a 1:1 molar ratio of metal-to-ligand ([M^3+]≈[H4noneunpaX]≈1×10^−4 M) with differing amounts of HCl (0.1 M and 3.0 M), to give samples ranging from pH 0-2. Measurements were recorded at T=298 K, I=1.0 cm, the Hammett acidity function (H0) was used determination of the pH in highly acidic solutions rather than electrode potentials. Metal solutions were prepared from atomic absorption spectroscopy (AAS) standards, which were previously evaluated using Gran's method of titrating equimolar solutions of a given metal ion and Na2H2EDTA against NaOH to determine the acid concentration.
# as §5, §6
# [12] = literature value (ref 40); cited from earlier work
# [13] = −log[Mfree] when [L] = 10 μM, [M] = 1 μM at pH 7.4
compound,measurement,setting,value
"O=C(O)CN(CCO)CC(=O)O [HEIDA, N-(2-hydroxyethyl)iminodiacetic acid]",log K1,"[1]; literature value (ref 26), iminodiacetate amine",8.68
O=C(O)CN(CCN(CC(=O)O)CC(=O)O)CCN(CC(=O)O)CC(=O)O [DTPA],pLu,[2],19.1
O=C(O)CN1CCN(CC(=O)O)CCN(CC(=O)O)CCN(CC(=O)O)CC1 [DOTA],pLu,[2],17.1
O=C(O)CN(CCOCCN(Cc1cccc(C(=O)O)n1)Cc1cccc(C(=O)O)n1)CC(=O)O [H4noneunpaX],log KMHL,"[3]; 25° C., I = […] NaCl",3.07(1)
same,log KML,"[3]; 25° C., I = […] NaCl",23.57(2)
same,pM,[3]; [13],22.9
same,log KMHL,"[4]; 25° C., I = […] NaCl",2.29(2)
same,log KML,"[4]; 25° C., I = […] NaCl",21.99(5)
same,pM,[4]; [13],21.3
same,log KMHL,"[5]; 25° C., I = […] NaCl",2.77(1)
same,log KML,"[5]; 25° C., I = […] NaCl",21.04(2)
same,pM,[5]; [13],20.4
same,log KMHL,"[6]; 25° C., I = […] NaCl",2.28(3)
same,log KML,"[6]; 25° C., I = […] NaCl",21.93(3)
same,pM,[6]; [13],21.3
same,log KMHL,"[7]; 25° C., I = […] NaCl",3.22(2)
same,log KML,"[7]; 25° C., I = […] NaCl",18.45(4)
same,pM,[7]; [13],17.8
same,Σlog KHqL,[8]; I = […] NaCl,27.35 (6)
same,log K (log K3),"[8]; H2L + H^+ ↔ H3L, I = […] NaCl",3.79
same,log β,"[8]; H2L + H^+ ↔ H3L, I = […] NaCl",19.71 (1)
same,log K (log K4),"[8]; H3L + H^+ ↔ H4L, I = […] NaCl",2.83
same,log β,"[8]; H3L + H^+ ↔ H4L, I = […] NaCl",22.54 (2)
same,log K (log K5),"[8]; H4L + H^+ ↔ H5L, I = […] NaCl",2.38
same,log β,"[8]; H4L + H^+ ↔ H5L, I = […] NaCl",24.92 (3)
same,log K (log K6),"[8]; H5L + H^+ ↔ H6L, I = […] NaCl",2.14
same,log β,"[8]; H5L + H^+ ↔ H6L, I = […] NaCl",27.06 (4)
same,log K,"[8]; H6L + H^+ ↔ H7L, I = […] NaCl",1.01
same,log β,"[8]; H6L + H^+ ↔ H7L, I = […] NaCl",28.07 (4)
same,log β,[8]; H7L + H^+ ↔ H8L,27.35 (6)
same,log K (log K2),"[8]; HL + H^+ ↔ H2L, I = […] NaCl",7.08
same,log β,"[8]; HL + H^+ ↔ H2L, I = […] NaCl",15.92 (1)
same,log K (log K1),"[8]; L + H^+ ↔ HL, I = […] NaCl",8.84
same,log β,"[8]; L + H^+ ↔ HL, I = […] NaCl",8.84 (1)
same,release of bound radiometal in human serum,[9],no release of bound radiometal
same,log KMHL,"[10]; 25° C., I = […] NaCl",2.80(1)
same,log KML,"[10]; 25° C., I = […] NaCl",20.87(4)
same,pM,[10]; [13],20.2
same,log KM(OH)2L,"[11]; 25° C., I = […] NaCl",9.06(4)
same,log KM(OH)L,"[11]; 25° C., I = […] NaCl",8.58(4)
same,log KMHL,"[11]; 25° C., I = […] NaCl",6.17(3)
same,log KML,"[11]; 25° C., I = […] NaCl",27.64(2)
same,pM,[11]; [13],26.5
O=C(O)CN(CCOCCN(CC(=O)O)Cc1cccc(C(=O)O)n1)Cc1cccc(C(=O)O)n1 [H4noneunpa],log K2,"[1]; literature value (ref 13), terminal amine",7.63
[^177Lu][Lu(DOTATATE)],accumulation in the adrenal glands,[12],8.95 % ID/g
same,accumulation in the lungs,[12],17.4 % ID/g
same,accumulation in the pancreas,[12],10.9 % ID/g
same,uptake in the kidneys,[12],6.31 % ID/g
